Data: patent US10563263B2, “Genetic polymorphisms associated with statin response and cardiovascular diseases, methods of detection and uses thereof” (CELERA CORPORATION, priority 2010, dated 2020)

System: CVD (CHD or stroke)
Assay: WOSCOPS: SNP by pravastatin treatment interaction, logistic regression (synergy index), CVD endpoint
Type: in vivo, human
Conditions: for OR (synergy index), WOSCOPS, Prava vs Placebo: CVD endpoint, Caseonly; for OR (SNP x pravastatin treatment interaction): WOSCOPS pravastatin vs placebo
Description: CARE was a secondary prevention trial and WOSCOPS was a primary prevention trial.
The CHD endpoint was defined in the analyses herein of CARE as a composite endpoint of fatal CHD, definite non-fatal MI, or revascularization, and was defined in the analyses herein of WOSCOPS as a composite endpoint of death from CHD, nonfatal MI, or revascularization. In both the CARE and WOSCOPS analyses herein, the CVD endpoint was defined as a composite endpoint of CHD or stroke. […] Revascularization, which can include percutaneous transluminal coronary angioplasty (PTCA), stent placement, and coronary artery bypass graft (CABG), are medical interventions that indicate the presence of CHD.
Cohort and case-only study designs were used to identify SNPs associated with response to statin treatment.
For each SNP, a logistic regression model having treatment status as the dependent variable and SNP as the independent predictor variable was performed, with terms for age, sex and race included in the model as covariates. The anti-log of the regression coefficient corresponding to the SNP is an estimate of the synergy index (SI) (Davis et al., “Imputing gene-treatment interactions when the genotype distribution is unknown using case-only and putative placebo analyses-a new method for the Genetics of Hypertension Associated Treatment (GenHAT) study”, Statistics in Medicine 23: (2004), pages 2413-2427). The SI is a ratio of odds ratios: for example in the CARE and WOSCOPS studies, the SI represents the factor by which the odds-ratio of statin treatment, compared with placebo, among major homozygous individuals is multiplied by in order to obtain the odds-ratio of treatment vs. placebo among heterozygous individuals; and multiplied by a second time to obtain the odds-ratio of treatment vs. placebo in minor homozygous individuals. […] In a randomized clinical trial, genotype and treatment are independent by design.

Structure (SMILES): CC[C@H](C)C(=O)O[C@H]1C[C@H](O)C=C2C=C[C@H](C)[C@H](CC[C@@H](O)C[C@@H](O)CC(=O)O)[C@H]21 [Pravastatin, pravastatin]
- OR (synergy index), WOSCOPS, Prava vs Placebo (SNP rs304601 (A1 A, A2 G), rec model): 3.93
- OR (synergy index), WOSCOPS, Prava vs Placebo (SNP rs988146 (A1 G, A2 A), add model): 0.80
- OR (SNP x pravastatin treatment interaction) (SNP rs1241967, allele A1=T, model REC, Imputed): 0.5915
- OR (SNP x pravastatin treatment interaction) (SNP rs1247340, allele A1=C, model ADD, Imputed): 1.51
- OR (SNP x pravastatin treatment interaction) (SNP rs1247340, allele A1=C, model DOM, Imputed): 1.767
- OR (SNP x pravastatin treatment interaction) (SNP rs1247341, allele A1=C, model ADD, Imputed): 1.524
- OR (SNP x pravastatin treatment interaction) (SNP rs1247341, allele A1=C, model DOM, Imputed): 1.795
- OR (SNP x pravastatin treatment interaction) (SNP rs1247343, allele A1=C, model DOM, Imputed): 1.681
- OR (SNP x pravastatin treatment interaction) (SNP rs1335721, allele A1=A, model REC, Imputed): 0.5999
- OR (SNP x pravastatin treatment interaction) (SNP rs1336382, allele A1=T, model DOM, Imputed): 1.458
- OR (SNP x pravastatin treatment interaction) (SNP rs1336383, allele A1=T, model DOM, Imputed): 1.458
- OR (SNP x pravastatin treatment interaction) (SNP rs1336407, allele A1=T, model DOM, Imputed): 1.458
- OR (SNP x pravastatin treatment interaction) (SNP rs1336409, allele A1=T, model DOM, Imputed): 1.458
- OR (SNP x pravastatin treatment interaction) (SNP rs1336596, allele A1=A, model DOM, Imputed): 0.6728
- OR (SNP x pravastatin treatment interaction) (SNP rs1355715, allele A1=T, model ADD, Imputed): 0.5755
- OR (SNP x pravastatin treatment interaction) (SNP rs1363273, allele A1=C, model REC, Imputed): 0.5817
- OR (SNP x pravastatin treatment interaction) (SNP rs1373601, allele A1=A, model DOM, Imputed): 0.5287
- OR (SNP x pravastatin treatment interaction) (SNP rs1395748, allele A1=G, model DOM, Imputed): 0.6603
- OR (SNP x pravastatin treatment interaction) (SNP rs1414865, allele A1=T, model DOM, Imputed): 1.433
- OR (SNP x pravastatin treatment interaction) (SNP rs1414873, allele A1=A, model DOM, Imputed): 1.458
- OR (SNP x pravastatin treatment interaction) (SNP rs1414876, allele A1=C, model DOM, Imputed): 1.458
- OR (SNP x pravastatin treatment interaction) (SNP rs1424643, allele A1=G, model ADD, Imputed): 1.554
- OR (SNP x pravastatin treatment interaction) (SNP rs1424643, allele A1=G, model DOM, Imputed): 1.592
- OR (SNP x pravastatin treatment interaction) (SNP rs1424648, allele A1=T, model DOM, Imputed): 1.619
- OR (synergy index), WOSCOPS, Prava vs Placebo (SNP rs1559557 (A1 G, A2 A), add model): 1.53
- OR (synergy index), WOSCOPS, Prava vs Placebo (SNP rs1877527 (A1 G, A2 A), add model): 0.77
- OR (synergy index), WOSCOPS, Prava vs Placebo (SNP rs2132241 (A1 A, A2 G), add model): 0.70
- OR (synergy index), WOSCOPS, Prava vs Placebo (SNP rs2270588 (A1 G, A2 A), add model): 0.75
- OR (synergy index), WOSCOPS, Prava vs Placebo (SNP rs9325191 (A1 A, A2 C), add model): 0.69
- OR (synergy index), WOSCOPS, Prava vs Placebo (SNP rs9346951 (A1 A, A2 G), add model): 1.25
- OR (synergy index), WOSCOPS, Prava vs Placebo (SNP rs10787944 (A1 G, A2 A), dom model): 1.45
- OR (SNP x pravastatin treatment interaction) (SNP rs11959206, allele A1=A, model REC, Imputed): 0.5862
- OR (SNP x pravastatin treatment interaction) (SNP rs12038613, allele A1=C, model REC, Imputed): 0.5999
- OR (SNP x pravastatin treatment interaction) (SNP rs12151417, allele A1=T, model DOM, Imputed): 1.573
- OR (SNP x pravastatin treatment interaction) (SNP rs12153185, allele A1=T, model DOM, Imputed): 0.6973
- OR (SNP x pravastatin treatment interaction) (SNP rs12182651, allele A1=T, model DOM, Imputed): 2.24
- OR (SNP x pravastatin treatment interaction) (SNP rs12235345, allele A1=C, model DOM, Imputed): 1.42
- OR (SNP x pravastatin treatment interaction) (SNP rs12324786, allele A1=T, model REC, Imputed): 2.796
- OR (SNP x pravastatin treatment interaction) (SNP rs12336958, allele A1=G, model DOM, Imputed): 1.46
- OR (SNP x pravastatin treatment interaction) (SNP rs12407412, allele A1=C, model ADD, Imputed): 1.382
- OR (SNP x pravastatin treatment interaction) (SNP rs12407412, allele A1=C, model DOM, Imputed): 1.401
- OR (SNP x pravastatin treatment interaction) (SNP rs12418971, allele A1=C, model REC, Imputed): 1.699
- OR (SNP x pravastatin treatment interaction) (SNP rs12420184, allele A1=G, model DOM, Imputed): 0.6518
- OR (SNP x pravastatin treatment interaction) (SNP rs12433968, allele A1=T, model DOM, Imputed): 0.7213
- OR (SNP x pravastatin treatment interaction) (SNP rs12445477, allele A1=A, model DOM, Imputed): 0.4063
- OR (SNP x pravastatin treatment interaction) (SNP rs12447191, allele A1=T, model ADD, Genotyped): 0.6489
- OR (SNP x pravastatin treatment interaction) (SNP rs12447191, allele A1=T, model DOM, Genotyped): 0.5081
- OR (SNP x pravastatin treatment interaction) (SNP rs12465349, allele A1=A, model REC, Imputed): 1.587
- OR (SNP x pravastatin treatment interaction) (SNP rs12509758, allele A1=C, model DOM, Imputed): 1.856
- OR (SNP x pravastatin treatment interaction) (SNP rs12515472, allele A1=A, model DOM, Imputed): 1.531
- OR (SNP x pravastatin treatment interaction) (SNP rs12548906, allele A1=G, model ADD, Imputed): 1.496
- OR (SNP x pravastatin treatment interaction) (SNP rs12596240, allele A1=G, model DOM, Imputed): 0.6708
- OR (SNP x pravastatin treatment interaction) (SNP rs12618781, allele A1=A, model DOM, Imputed): 0.5446
- OR (SNP x pravastatin treatment interaction) (SNP rs12678600, allele A1=A, model DOM, Imputed): 0.6479
- OR (SNP x pravastatin treatment interaction) (SNP rs12692229, allele A1=T, model ADD, Imputed): 1.315
- OR (SNP x pravastatin treatment interaction) (SNP rs12713324, allele A1=T, model DOM, Imputed): 1.584
- OR (SNP x pravastatin treatment interaction) (SNP rs12719415, allele A1=T, model DOM, Imputed): 0.6887
- OR (SNP x pravastatin treatment interaction) (SNP rs12820589, allele A1=G, model ADD, Imputed): 1.758
